The text below walks through data of ChEMBL document CHEMBL3045135, “Synthesis, characterization and pharmacological evaluation of (E)-N-(substituted-benzylidene)isonicotinohydrazide derivatives as potent anticonvulsant agents” (Med Chem Res, 2012).

Series [1] is described as follows: Neurotoxicity in ip dosed Mus musculus C57B/6 (mouse) assessed as minimal motor impairment after 4 hr. It counts as toxicity, organism-based. The note with it: in vivo.
The test system of series [2] is Mus musculus. The series can be described thus: Anticonvulsant activity in Mus musculus C57B/6 (mouse) assessed as protection against subcutaneous pentylene tetrazole-induced seizure at 300 mg/kg, ip after 4 hr. On the set-up: dose 300 mg/kg. The format is functional, organism-based.
The test system of series [3] is Mus musculus. Kind of series: Anticonvulsant activity in Mus musculus C57B/6 (mouse) assessed as protection against subcutaneous pentylene tetrazole-induced seizure at 300 mg/kg, ip after 0.5 hr. The format is functional, organism-based. On the set-up: dose 300 mg/kg.
The test system of series [4] is Mus musculus. Kind of series: Anticonvulsant activity in Mus musculus C57B/6 (mouse) assessed as protection against maximal electroshock-induced seizure at 300 mg/kg, ip after 4 hr. The format is functional, organism-based. On the set-up: dose 300 mg/kg. Background: In the maximal electroshock model the usual endpoint is tonic extension of the hind limbs.
In series [5] the test system is Mus musculus. Kind of series: Anticonvulsant activity in Mus musculus C57B/6 (mouse) assessed as protection against maximal electroshock-induced seizure at 300 mg/kg, ip after 0.5 hr. On the set-up: dose 300 mg/kg. The format is functional, organism-based.
In series [6] the test system is Mus musculus. The series can be described thus: Anticonvulsant activity in Mus musculus C57B/6 (mouse) assessed as protection against 6 Hz psychomotor seizure at 100 mg/kg, ip after 0.25 to 4 hr by minimal clonic seizure test. Further details: dose 100 mg/kg. It counts as functional, organism-based.
Series [7] relates to Mus musculus. The series can be described thus: Neurotoxicity in Mus musculus C57B/6 (mouse) assessed as minimal motor impairment at 300 mg/kg, ip after 4 hr. It counts as toxicity, organism-based. On the set-up: dose 300 mg/kg, route intraperitoneal. The following applies: in vivo.
Series [8] deals with Mus musculus. The series can be described thus: Neurotoxicity in Mus musculus C57B/6 (mouse) assessed as minimal motor impairment at 300 mg/kg, ip after 0.5 hr. The format is toxicity, organism-based. Further details: dose 300 mg/kg, route intraperitoneal. The note with it: in vivo.
Series [9] concerns Mus musculus. Kind of series: Anticonvulsant activity in ip dosed Mus musculus C57B/6 (mouse) assessed as protection against maximal electroshock-induced seizure after 0.5 hr. The format is functional. The following applies: C57B/6, ip, read-out: MED.
For series [10], the system named is Mus musculus. Kind of series: Anticonvulsant activity in ip dosed Mus musculus C57B/6 (mouse) assessed as protection against subcutaneous pentylene tetrazole-induced seizure after 0.5 hr. The note with it: C57B/6, 0.5 h, read-out: MED. The format is functional.
Series [11] has as its system Mus musculus. The series can be described thus: Anticonvulsant activity in ip dosed Mus musculus C57B/6 (mouse) assessed as protection against maximal electroshock-induced seizure after 4 hr. The format is functional. The following applies: C57B/6, ip, read-out: MED.

Active and inactive are the calls of the source. No cut-off for these calls is given here.

In the case of `C/C(=N\NC(=O)c1ccncc1)c1ccccc1` [ISONICOTINOYLHYDRAZONE OF ACETOPHENONE], the MTD at 4 h in series [1] amounted to 300 mg/kg. Further, the outcome in the series on Mus musculus [2], with Mus musculus [3], in the series with Mus musculus [4] and in the series with Mus musculus [5] was inactive.

With `CCOc1ccccc1/C=N/NC(=O)c1ccncc1`, the outcome with Mus musculus [6] was Active. The Activity result in the series with Mus musculus [7] and in the series with Mus musculus [8] was “Non-toxic” each time. In addition, the outcome in the series with Mus musculus [2], with Mus musculus [3] and in the series with Mus musculus [4] was inactive. The minimal effective dose in the series with Mus musculus [9] was 300 mg/kg.

As for `CN(C)c1ccc(/C=N/NC(=O)c2ccncc2)cc1` [N'-(4-DIMETHYLAMINOBENZYLIDENE)ISONICOTINOHYDRAZIDE], the Activity result in the series with Mus musculus [8] is listed as “Non-toxic”. Moreover, the MTD at 4 h in series [1] is 300 mg/kg. In addition, the result in the series on Mus musculus [2], in the series with Mus musculus [3], with Mus musculus [4] and with Mus musculus [5] was inactive.

Consider `O=C(NN=C(c1ccccc1)c1ccccc1)c1ccncc1`, for which the result in the series on Mus musculus [6] was Active. The Activity result with Mus musculus [7] and in the series with Mus musculus [8] was “Non-toxic” throughout. Further, the result in the series with Mus musculus [2] and with Mus musculus [4] was inactive. The minimal effective dose in the series with Mus musculus [10] and in the series with Mus musculus [9] was 300 mg/kg each time.

Take `O=C(N/N=C(\c1ccccc1)c1ccc(Br)cc1)c1ccncc1`: the Activity result with Mus musculus [8] is “Non-toxic”. Moreover, the MTD at 4 h in [1] was 100 mg/kg. Moreover, the result with Mus musculus [2], in the series on Mus musculus [3], in the series on Mus musculus [4] and in the series with Mus musculus [5] was inactive.

Regarding `O=C(N/N=C/c1cccc(F)c1)c1ccncc1`, the result in the series with Mus musculus [6] was Active. The Activity entry with Mus musculus [7] and with Mus musculus [8] was “Non-toxic” in each case. Also, the result with Mus musculus [2], with Mus musculus [3] and in the series on Mus musculus [4] was inactive. In addition, the minimal effective dose in the series with Mus musculus [9] came to 300 mg/kg.

As to `O=C1NC(=O)C(c2ccccc2)(c2ccccc2)N1` [PHENYTOIN], the outcome in the series on Mus musculus [2] and with Mus musculus [3] was inactive. Besides, the minimal effective dose with Mus musculus [11] and in the series with Mus musculus [9] was 30 mg/kg each time.

Take `O=C(N/N=C/c1ccccc1)c1ccncc1` [N'-BENZYLIDENE ISONICOTINOHYDRAZIDE]: in the series on Mus musculus [6], the outcome was Active. The Activity entry with Mus musculus [7] and with Mus musculus [8] was “Non-toxic” throughout. Further, the result in the series on Mus musculus [2], in the series on Mus musculus [3] and in the series with Mus musculus [4] was inactive. Also, in the series with Mus musculus [9], the minimal effective dose stood at 300 mg/kg.
